How the values were obtained:
[1] = target: T1, Sirt6 (Homo sapiens, UniProt Q8N6T7); experiment: Fluor-de-Lys peptide deacetylation assay, Sirt6; assay type: biochemical
T1 construct: Sirt6 residues 13-308; His-tag with linker comprising a TEV protease cleavage site (N, cleaved yes); made in house; host or cells: E. coli Rosetta2
Outline: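 Fluor-de-Lys kit run with FdL-1 peptide RHK(acetyl-K), 0.1 mM, plus 0.5 mM NAD+. Compounds at 100 μM final, 30 min at 37 °C, then trypsin developer for 45 min at room temperature.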

[2] = target: T2, Sirt5 (Homo sapiens, UniProt Q9NXA8); experiment: Fluor-de-Lys peptide deacetylation assay, Sirt5; assay type: biochemical
T2 construct: Sirt5 residues 34-302; His-tag with linker comprising a TEV protease cleavage site (N); made in house
T2 sequence (Q9NXA8 34-302): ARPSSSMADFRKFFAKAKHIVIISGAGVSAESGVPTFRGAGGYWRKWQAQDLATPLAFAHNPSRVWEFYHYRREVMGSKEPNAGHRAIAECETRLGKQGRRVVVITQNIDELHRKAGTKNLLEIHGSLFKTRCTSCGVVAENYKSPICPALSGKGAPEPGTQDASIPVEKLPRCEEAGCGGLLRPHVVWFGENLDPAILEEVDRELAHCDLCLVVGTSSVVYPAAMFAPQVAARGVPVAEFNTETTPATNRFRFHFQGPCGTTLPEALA
Outline: (§1)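 E. coli-expressed human Sirtuins with 0.5 mM NAD+ and 0.1 mM Fluor-de-Lys peptide: FdL-2 (QPK(acetyl-K)) for Sirt3, FdL-1 (RHK(acetyl-K)) for Sirt5. Compounds at 100 μM final; 30 min at 37 °C, then trypsin developer for 45 min at room temperature.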

[3] = target: T3, Sirt3 (Homo sapiens, UniProt Q9NTG7); experiment: Fluor-de-Lys peptide deacetylation assay, Sirt3; assay type: biochemical
T3 construct: Sirt3 residues 114-399; His-tag with linker comprising a TEV protease cleavage site (N); made in house; host or cells: E. coli
T3 sequence (Q9NTG7 114-399): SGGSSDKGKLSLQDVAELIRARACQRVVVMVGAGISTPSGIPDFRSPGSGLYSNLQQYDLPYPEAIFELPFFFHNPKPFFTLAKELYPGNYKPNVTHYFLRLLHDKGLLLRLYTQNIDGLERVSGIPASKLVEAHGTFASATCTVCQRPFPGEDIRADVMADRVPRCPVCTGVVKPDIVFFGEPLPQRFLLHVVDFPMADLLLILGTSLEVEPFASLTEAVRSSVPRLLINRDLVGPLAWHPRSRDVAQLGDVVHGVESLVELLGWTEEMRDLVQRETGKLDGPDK
Outline: as §1

[4] = target: T4, Sirt2 (Homo sapiens, UniProt Q8IXJ6); experiment: Fluor-de-Lys peptide deacetylation assay, Sirt2; assay type: biochemical
T4 sequence (Q8IXJ6 34-356): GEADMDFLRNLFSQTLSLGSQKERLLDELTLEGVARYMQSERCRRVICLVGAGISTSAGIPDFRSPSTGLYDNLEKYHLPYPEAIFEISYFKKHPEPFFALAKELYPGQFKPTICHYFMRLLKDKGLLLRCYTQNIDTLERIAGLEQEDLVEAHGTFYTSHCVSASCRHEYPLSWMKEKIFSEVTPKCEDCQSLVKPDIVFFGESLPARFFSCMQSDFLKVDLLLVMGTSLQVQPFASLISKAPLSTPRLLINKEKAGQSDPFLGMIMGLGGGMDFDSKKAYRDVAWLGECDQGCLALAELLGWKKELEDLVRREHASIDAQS
Outline: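 Full-length human Sirt2 (E. coli-expressed, purified, His-tag removed) incubated 30 min at 37 °C with 0.1 mM FdL-2 peptide (QPK(acetyl-K)), 0.5 mM NAD+ and compound at 100 μM final in kit buffer. Values corrected with compound-only (no Sirtuin) controls; screen in duplicate, dose-response in triplicate.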

[5] = system: HEK cells; experiment: Cytotoxicity testing on HEK cells

T1 sequence (Q8N6T7 13-308): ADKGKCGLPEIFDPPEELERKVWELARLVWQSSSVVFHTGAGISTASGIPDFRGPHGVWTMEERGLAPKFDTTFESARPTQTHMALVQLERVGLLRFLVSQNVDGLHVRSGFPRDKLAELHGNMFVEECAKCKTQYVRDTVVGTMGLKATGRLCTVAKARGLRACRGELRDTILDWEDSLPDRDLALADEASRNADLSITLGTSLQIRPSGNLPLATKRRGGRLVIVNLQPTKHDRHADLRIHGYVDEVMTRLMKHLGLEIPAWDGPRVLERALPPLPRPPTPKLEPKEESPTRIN

CC12Cc3cnc(-c4ccccc4)nc3CC1CCC1C2CCC2(C)C1CCC2(C)O (stereo not shown) [CSC13, 1,11a,13a-trimethyl-8-phenyl-2,3,3a,3b,4,5,5a,6,11,11a,11b,12,13,13a-tetradecahydro-1H-cyclopenta[5,6]naphtho[1,2-g]quinazolin-1-ol] was tested, and the “Effect on the activity of Sirt6” value [1] was “--- (key: inhibition: significant inhibitory effects (>25% loss of activity); ---: no such effect)”, the “Effect on the activity of Sirt5” value [2] was “--- (key: inhibition: significant inhibitory effects (>25% loss of activity); ---: no such effect)” and the “Effect on the activity of Sirt3” value [3] was “--- (key: inhibition: significant inhibitory effects (>25% loss of activity); ---: no such effect)”. For the same compound, the “Effect on the activity of Sirt2” value [4] was “inhibition (key: inhibition: significant inhibitory effects (>25% loss of activity); ---: no such effect)”, the IC50 [4] was 9.7 ± 1.5 µM and the inhibition at 100 µM ([4]; read-out: Sirt2 inhibition in the screen) was about 80%. For the same compound, the cytotoxicity [5] was “smaller effect”.

Reference: publication PMC3227451, “Structure-based development of novel sirtuin inhibitors” (Aging (Albany NY), 2011)
